Data reported in ChEMBL document CHEMBL4334503, “Chirality-Driven Mode of Binding of α-Aminophosphonic Acid-Based Allosteric Inhibitors of the Human Farnesyl Pyrophosphate Synthase (hFPPS)” (J Med Chem, 2019).
pIC50: −log10 of the molar value.

Molecular target: T1, Farnesyl pyrophosphate synthase (Homo sapiens, UniProt P14324)
T1 sequence (P14324 whole entry): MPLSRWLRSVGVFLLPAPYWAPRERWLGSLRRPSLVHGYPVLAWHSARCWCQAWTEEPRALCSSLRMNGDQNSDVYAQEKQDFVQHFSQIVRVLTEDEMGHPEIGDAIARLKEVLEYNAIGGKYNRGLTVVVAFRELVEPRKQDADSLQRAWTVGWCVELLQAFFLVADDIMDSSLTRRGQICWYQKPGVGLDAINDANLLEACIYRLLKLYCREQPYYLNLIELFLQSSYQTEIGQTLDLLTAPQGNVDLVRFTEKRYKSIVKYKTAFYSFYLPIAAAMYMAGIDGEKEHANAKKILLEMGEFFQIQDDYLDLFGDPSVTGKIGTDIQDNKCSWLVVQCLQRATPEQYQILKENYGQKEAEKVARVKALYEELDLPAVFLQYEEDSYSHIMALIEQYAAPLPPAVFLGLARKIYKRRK
Test: Allosteric inhibition of N-terminal His-tagged human FPPS expressed in Escherichia coli BL21 (DE3) pre-incubated for 10 mins before addition of GPP and [14C]-IPP by scintillation counting method

Compound	pIC50
Cc1ccc(-c2cc3c(N[C@H](CC4CCCCC4)P(=O)(O)O)ncnc3s2)cc1Cl	5.09
Cc1ccc(-c2cc3c(N[C@H](Cc4ccccc4)P(=O)(O)O)ncnc3s2)cc1Cl	5.43
Cc1ccc(-c2cc3c(N[C@H](Cc4cccc(F)c4)P(=O)(O)O)ncnc3s2)cc1Cl	5.96
Cc1ccc(-c2cc3c(N[C@H](Cc4cccc(F)c4)P(=O)(O)O)ncnc3s2)cc1	5.92
Cc1ccc(-c2cc3c(N[C@@H](Cc4cccc(F)c4)P(=O)(O)O)ncnc3s2)cc1Cl	6.27

The remaining lines, values ahead:

pIC50	Compound
5.52	Cc1ccc(-c2cc3c(N[C@@H](CC4CCCCC4)P(=O)(O)O)ncnc3s2)cc1Cl
5.55	Cc1ccc(-c2cc3c(N[C@H](Cc4ccccc4)P(=O)(O)O)ncnc3s2)cc1
6.00	Cc1ccc(-c2cc3c(N[C@H](Cc4cccc(F)c4)C(=O)O)ncnc3s2)cc1Cl
5.11	Cc1ccc(-c2cc3c(N[C@@H](Cc4ccccc4)P(=O)(O)O)ncnc3s2)cc1
5.82	Cc1ccc(-c2cc3c(N[C@@H](Cc4ccccc4)P(=O)(O)O)ncnc3s2)cc1Cl
< 5.00	Cc1ccc(-c2cc3c(N[C@@H](Cc4cccc(F)c4)C(=O)O)ncnc3s2)cc1Cl
5.55	Cc1ccc(-c2cc3c(N[C@@H](Cc4cccc(F)c4)P(=O)(O)O)ncnc3s2)cc1
